In one experiment the test system is Saos-2-His-273 cell line. Kind of experiment: Library screening / WST-1 growth suppression and growth curves, Saos-2-His-273. Format: cell-based, human. Particulars: for growth suppression: with vs without mutant p53 expression, WST-1. The protocol:
In contrast, the effect of treatment on Saos-2 cells lacking p53 expression was rather minor. […] The degree of WST-1 reduction, which reflects a number of living cells, was measured by microplate reader at λ490 nm according to manufacturer (Roche). The growth suppression was calculated as a difference in absorbance at λ 490 nm between untreated and treated cells and expressed in a percent from untreated control. Growth suppression=100%×(control absorbance−treated absorbance)/control absorbance. […] The experimental set up was as described in FIG. 2A. The differences in a viability were statistically significant according to an independent t-test.
(§1) Saos-2-His-273 cell line stably transfected with construct allowing expression of mutant His-273 p53 in a tetracycline-dependent manner was used for screening (Selivanova et al., 1997). p53 expression was inhibited by incubation of cells with doxycycline (5 μg/ml). Cells were grown in 96-well plates at a density of 3000 cells per well with or without doxycycline and treated with 25 μM of the compounds from the NCI library of low molecular weight (LMW) compounds. After 48 hours of incubation the proliferative cell reagent WST-1 (Roche) was added to the cells. The degree of WST-1 reduction, which reflects cell viability, was measured by microplate reader at λ490 nm according to the manufacturer (Roche).
as §1, with “1997).” for “1997). p53 expression was inhibited by incubation of cells with doxycycline (5 μg/ml).”, “doxycycline. The treatment was done at a concentration of” for “doxycycline and treated with”, “each chemical” for “the compounds”, “is proportional to the” for “reflects”, “by a” for “by”, “λ 490=n” for “λ490 nm”
(Tetrazolium assays rely on reduction of a dye to a coloured formazan, in cell work by metabolically active cells.)

Experiment [1] deals with human tumour cell lines with different p53 status (p53 null, wild type p53, mutant p53). The experiment can be described thus: WST-1 growth suppression in cell lines with different p53 status. Format: cell-based. Particulars: mutant p53 vs p53 null and wild type p53 cell lines. The protocol:
The degree of WST-1 reduction, which reflects a number of living cells, was measured by microplate reader at λ490 nm according to manufacturer (Roche). The growth suppression was calculated as a difference in absorbance at λ 490 nm between untreated and treated cells and expressed in a percent from untreated control. Growth suppression=100%×(control absorbance−treated absorbance)/control absorbance. […] The experimental set up was as described in FIG. 2A.
The human cell lines were as follows. p53 null: Saos-2 osteosarcoma, K562 acute myeloid leukemia, and HL60 promyelocytic leukemia Wild type p53 expressing cells: NHF normal human fibroblasts, HeLa cervical carcinoma (carries HPV E6 protein, leading to p53 degradation), U2OS osteosarcoma, and EBV-positive IARC 171 lymphoblastoid cell line. […] In addition, mouse p53 null J3D T-cell lymphoma line was used.

The target of experiment [2] is T1, GST-wild type p53 protein (Homo sapiens, UniProt P04637).
T1 construct: made in house
Kind of experiment: ELISA of p53 conformation epitopes (PAb1620, PAb240, DO-1), recombinant protein. Format: biochemical. The conditions noted are these: for appearance of PAb240 epitope (unfolding) upon heating: heating at 37° C.; for preservation of PAb 1620 epitope upon heating: recombinant wild type and mutant p53 proteins, 30 min at 37° C. The protocol: Absorbance of the control sample incubated on ice was taken as 100%.
The procedure was performed with or without tested compounds. The ELISA analyses were done as described by (Foster et al., 1999). Briefly, after the treatment, samples were diluted with coating buffer (150 mM KCL, 25 mM HEPES) supplemented with 10 mM DTT. The whole mixture was apply to ELISA plates (MaxiSorp, Nunc) and incubated at +4° C. for 35 min. The wells were washed with coating buffer. The wells were blocked by 5% skim milk in PBS by incubating at +4° C. for 1 h. Wells were rinsed twice with PBS followed by addition of mouse primary antibodies (PAb 1620 or PAb 240) diluted 1:250 in coating buffer. Samples were incubated at +4° C. for 30 min. Wells were rinsed twice with PBS. After that, a secondary antibody (anti-mouse, conjugated with horse radish peroxidase) was incubated with samples at +4° C. for 30 min. Then plates were washed 5 times with PBS and a peroxidase substrate was added. An absorbance at λ405 nm was monitored by ELISA reader.

Experiment [3] deals with endogenous mutant p53 proteins. It counts as biochemical, human. Particulars: cell extracts of human tumor cell lines, band shift. The protocol: PAb421 antibody was added to all reaction mixtures. […] Monoclonal antibody PAb421 was added to the reaction mixtures in lanes 2-8; PAb1801 was added to the reaction mixtures in lanes 9-15.
The GST-p53 proteins were prepared as described (Selivanova et al., 1997). Band shift assays were performed in binding buffer containing 100 mM HEPES pH 7.5, 50 mM KCl, 1 mg/ml BSA, 0.1% Triton X-100, 2 mM MgC12 and 1 mM DTT essentially as in (Selivanova et al., 1996).

The test system of a further experiment is SKOV-His-175 cells. Kind of experiment: WST-1 proliferation assay, SKOV-His-175 cells (cycloheximide, His-175-22/23 comparison). Format: cell-based, human. The conditions noted are these: for increase in cell survival after cycloheximide pretreatment: cycloheximide before compound, WST-1.
Experiment [4] relates to p53-responsive PG-luciferase reporter in Saos-2-His-273 cells. Kind of experiment: PG-luciferase p53 reporter assay in Saos-2-His-273. It counts as cell-based, human. The procedure:
Transactivation assays using p53-responsive promoter constructs linked to the luciferase reporter gene (PG-luc) were performed by the Dual Luciferase Reporter Assay System (Promega) according to the manufacturer. […] A luciferase activity was assayed 1; 3.5 and 15 hours post-treatment.
Whereas compound MIRA-1 stimulated luciferase expression 2-fold already after 3.5 hours, 2-fold induction by compound PRIMA-I was achieved only after 15 hours of treatment.

Experiment [5] deals with p21 and MDM2 in H1299-His-175 cells. The experiment can be described thus: Western blot of p53 target genes p21 and MDM2, H1299-His-175. It counts as cell-based, human.
The test system of experiment [6] is MDM2 and p21 in SW480 colon carcinoma cells (endogenous His-273 mutant p53). The experiment can be described thus: Western blot of MDM2 and p21, SW480. It counts as cell-based, human. The procedure: The expression of proteins was analyzed using Western blot. […] FIG. 10C pictures induction of p53 target genes in PRIMA-1-treated SW480 colon carcinoma cells carrying endogenous His-273/Ser-309 mutant p53.
(In general: In western blotting, separated proteins are transferred to a membrane and probed.)

The mark [7] stands for this setting: recombinant protein treated with compound.
Where [8] appears, read: absence of mutant p53 expression.
The mark [9] stands for this setting: cells expressing mutant p53, PRIMA-1 25 μM, MIRA-1 10 μM.

Data on two compounds can be found in US7659278B2, “Use of low molecular weight compounds for preparing a medicament useful in treating mutant p53 mediated diseases” (Aprea AB, priority 2002, dated 2010).

T1 sequence (P04637 whole entry): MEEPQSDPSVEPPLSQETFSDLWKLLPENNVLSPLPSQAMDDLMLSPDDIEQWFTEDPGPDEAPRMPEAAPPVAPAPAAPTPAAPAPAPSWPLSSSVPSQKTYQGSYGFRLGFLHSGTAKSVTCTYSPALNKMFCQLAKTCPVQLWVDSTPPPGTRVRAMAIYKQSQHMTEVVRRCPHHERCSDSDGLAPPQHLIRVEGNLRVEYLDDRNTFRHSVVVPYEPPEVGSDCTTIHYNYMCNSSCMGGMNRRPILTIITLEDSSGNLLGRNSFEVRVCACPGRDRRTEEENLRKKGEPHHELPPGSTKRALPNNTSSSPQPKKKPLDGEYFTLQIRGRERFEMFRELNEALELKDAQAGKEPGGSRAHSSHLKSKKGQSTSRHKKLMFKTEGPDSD

With `CCCOCN1C(=O)C=CC1=O` [MIRA-1, 1-(propoxymethyl)-maleimide], the growth suppression entry with Saos-2-His-273 cell line was “suppressed the growth of cells expressing mutant p53 but did not affect the growth of cells lacking p53 expression”. In addition, in experiment [1], the “growth suppression by p53 status” value is “suppressed the growth of mutant p53-expressing cells more efficiently then p53 null and wild type p53 containing cells”. Also, in experiment [2], the “appearance of PAb240 epitope (unfolding) upon heating” value is “able to prevent unfolding of p53 proteins” and the “preservation of PAb 1620 epitope upon heating” value is “preserve the conformation-dependent epitope for PAb 1620 antibody”. Also, in experiment [2] (setting [7]), the “increase in PAb1620+ fraction” value was “About 40%” and the “reduction in PAb240+ fraction” value was −20%. Also, in experiment [3], the “mutant p53 proteins with restored specific DNA binding” value is 3 out of 14. In addition, in the experiment with SKOV-His-175 cells (after compound treatment), the “sensitivity of SKOV-His-175 cells in comparison with SKOV-His-175-22/23 cells” value was “at least 3 fold”. Moreover, in the experiment with SKOV-His-175 cells, the “increase in cell survival after cycloheximide pretreatment” value is “about 4 fold”. Further, in experiment [4] (after 3.5 hours), the “stimulation of luciferase expression” value was 2 fold. Also, the “induction of MDM2 and p21” value in experiment [5] (setting [8]) was “did not cause any induction of MDM2 nor p21”. Moreover, in experiment [5] (setting [9]), the “induction of MDM2 and p21” value was “solid induction of both MDM2 and p21”. Further, the “induction of MDM2 and p21” value in experiment [6] was “induced MDM2 and p21”.
As for `O=C1C2CCN(CC2)C1(CO)CO` [PRIMA-1, 2,2-bis(hydroxymethyl)-1-azabicyclo[2.2.2]octan-3-one], in the experiment on Saos-2-His-273 cell line (setting [8]), the “growth of cells (growth curves)” value is “only caused a minor reduction in growth rate”. In the experiment with Saos-2-His-273 cell line (cells expressing mutant p53), the “growth of cells (growth curves)” value is reported as “completely inhibited growth”. Further, the growth suppression result with Saos-2-His-273 cell line is “suppressed the growth of cells expressing mutant p53 but did not affect the growth of cells lacking p53 expression”. Also, the “growth suppression by p53 status” value in experiment [1] was “suppressed the growth of mutant p53-expressing cells more efficiently then p53 null and wild type p53 containing cells”. Also, in experiment [2], the “appearance of PAb240 epitope (unfolding) upon heating” value is on record as “able to prevent unfolding of p53 proteins” and the “preservation of PAb 1620 epitope upon heating” value is on record as “preserve the conformation-dependent epitope for PAb 1620 antibody”. Moreover, in experiment [2] (setting [7]), the “DO-1+ fraction” value is reported as “remained unchanged”, the “increase in PAb1620+ fraction” value was determined as 40% and the “reduction in PAb240+ fraction” value was “corresponding decrease”. Further, the “mutant p53 proteins with restored specific DNA binding” value in experiment [3] is 13 out of 14. For the same compound, the “increase in cell survival after cycloheximide pretreatment” value in the experiment with SKOV-His-175 cells worked out at 4 fold. Further, the “induction of luciferase expression” value in experiment [4] (after 15 hours of treatment) was found to be 2 fold. Besides, in experiment [5] (setting [8]), the “induction of MDM2 and p21” value is reported as “did not cause any induction of MDM2 nor p21”. The “induction of MDM2 and p21” value in experiment [5] (setting [9]) was “solid induction of both MDM2 and p21”. In experiment [6], the “induction of MDM2 and p21” value is “induced MDM2 and p21”.
